Source: patent US20250129103A1, “METHODS FOR TREATMENT OF CANCER” (Frontier Medicines Corporation, priority 2022, published 2025)
In brackets after ≈: the same amount, converted by molar mass.

Key:
[1] = biological target: KRAS G12C (GMPPNP-loaded) and cRAF (Ras-binding domain) interaction (Homo sapiens (Human), UniProt P01116, C118S/C51S/C80L/G12C); test: Inhibition of KRAS G12C and cRAF binding (AlphaScreen); details: KRAS G12C loaded with GMPPNP, cRaf RBD, 2 hours preincubation; read-out: Raf-1 RBD K-Ras IC50
Outline: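 AlphaScreen readout (680 nm excitation, 570 nm emission) of RBD binding after a 60-90 min bead step at room temperature. This step follows 2 h compound exposure of GMPPNP-preloaded KRAS G12C in Hepes pH 7.4 buffer with MgCl2 and 10 μM GMPPNP.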

[2] = biological target: KRAS G12C (GMPPNP-loaded) and PI3Ka (Ras-binding domain) interaction (Homo sapiens (Human), UniProt P01116, C118S/C51S/C80L/G12C); test: Inhibition of KRAS G12C and PI3Ka binding (AlphaScreen); details: KRAS G12C loaded with GMPPNP, PI3Ka RBD, 2 hours preincubation; read-out: PI3K RBD K-Ras IC50
Method: The AlphaScreen technology was used to determine IC50S for compound inhibition of KRAS G12C (present as the Cys-light (C51S, C80L and C118S), truncated version comprising amino acids 1-169) and PI3Ka interaction. Compounds were diluted in 100% DMSO and each compound concentration was spotted at 200 nl/well onto low volume, white 384 well plates. The KRAS G12C contained a biotin-AviTag and the PI3Ka, as Ras-binding domain (amino acids 157-300, RBD), was His-tagged. KRAS G12C was preloaded with the GTP analogue Guanosine 5′-[β,γ-imido]triphosphate (GMPPNP). The KRAS G12C was diluted in 25 mM Hepes, pH 7.4, 150 mM NaCl, 5 mM MgCl2, 0.01% TritonX-100 and 10 μM GMPPNP and added at 10 ul/well to compound-spotted plates resulting in a DMSO concentration of 2%. Plates were incubated for 2 hours. A mixture of RBD and the AlphaScreen streptavidin donor and nickel chelate acceptor beads diluted in 25 mM Hepes, pH 7.4, 150 mM NaCl, 5 mM MgCl2, 0.01% TritonX-100 and 2% DMSO was then added at 10 ul/well and incubated for 60-90 minutes before the samples were read for emission at 570 nm after excitation of the donor beads at 680 nm. All incubations were performed at room temperature. The final top compound concentration was 50 μM with 1:3 titrations for 10-point dose response curves. Final assay conditions were 1.5 nM KRAS G12C, 100 nM RBD, 1.25 ug/ml of AlphaScreen donor beads and 10 μg/ml AlphaLISA acceptor beads. IC50s were determined using nonlinear regression fit of [inhibitor] vs. response (4 parameters). […]

[3] = Determination of logD (1-octanol / phosphate buffer pH 7.4); format: physicochemical; details: 1-octanol/phosphate buffer, pH 7.4, pH 7.4, 1-octanol/phosphate buffer; read-out: Log D, pH 7.4
Outline: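 Each phase analysed by LCMS after 1 h shaking at 800 rpm and centrifugation, room temperature. Phases were mutually saturated 1-octanol and 100 mM phosphate buffer at pH 7.4. LogD derived from the phase concentrations.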

[4] = Determination of kinetic solubility (pH 7.4); format: physicochemical; details: phosphate buffer, pH 7.4, aqueous buffer, kinetic from dmso stock, 50 mM phosphate buffer pH 7.4, read-out: Ksol, pH 7.4
Outline: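 Solubility taken from filtrate peak areas on a calibration curve (HPLC-UV, LC-MS/MS). Before filtration and centrifugation, compound was shaken for 2 h at room temperature in pH 7.4 50 mM phosphate buffer.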

Chain of KRAS G12C (GMPPNP-loaded) and PI3Ka (Ras-binding domain) interaction (P01116 other isoform, or with tags, fused parts or gaps G12C/C51S/C80L/C118S): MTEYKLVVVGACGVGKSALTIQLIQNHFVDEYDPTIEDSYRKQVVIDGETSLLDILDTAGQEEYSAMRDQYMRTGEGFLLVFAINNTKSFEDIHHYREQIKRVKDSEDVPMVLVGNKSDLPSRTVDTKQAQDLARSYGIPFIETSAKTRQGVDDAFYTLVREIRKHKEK
Chain of KRAS G12C (GMPPNP-loaded) and cRAF (Ras-binding domain) interaction (P01116 other isoform, or with tags, fused parts or gaps G12C/C51S/C80L/C118S): as above

Row | Structure (SMILES) | IC50 [1] | IC50 [2] | logD [3] | solubility kinetic at 2 h [4]
1 | N#CC[C@H]1CN(c2nc(OC[C@@]34CCCN3C[C@H](F)C4)nc3c(F)c(-c4cccc5cccc(F)c45)ncc23)CCN1C(=O)/C=C/CN1[C@@H]2CC[C@H]1COC2 [Compound 94, 2-((S)-1-((E)-4-((1R,5S)-3-oxa-8-azabicyclo[3.2.1]octan-8-yl)but-2-enoyl)-4-(8-fluoro-7-(8-fluoronaphthalen-1-yl)-2-(((2R,7aS)-2-fluorotetrahydro-1H-pyrrolizin-7a(5H)-yl)methoxy)pyrido[4,3-d]pyrimidin-4-yl)piperazin-2-yl)acetonitrile] | < 10 nM | < 10 nM | 3.11 | 90.2 µg/mL (≈ 120 µM)
2 | N#CC[C@H]1CN(c2nc(OC[C@@]34CCCN3C[C@H](F)C4)nc3c(F)c(-c4cccc5ccc(F)c(F)c45)ncc23)CCN1C(=O)/C=C/CN1CC2CC(C1)O2 [Compound 229] | < 10 nM | < 10 nM | 1.63 | 69.9 µg/mL (≈ 92.3 µM)
3 | Cc1noc(/C=C/C(=O)N2CCN(c3nc(OC[C@@]45CCCN4C[C@H](F)C5)nc4c(F)c(-c5cccc6cccc(Cl)c56)ncc34)C[C@@H]2CC#N)n1 [Example 4, 2-((S)-4-(7-(8-chloronaphthalen-1-yl)-8-fluoro-2-(((2R,7aS)-2-fluorotetrahydro-1H-pyrrolizin-7a(5H)-yl)methoxy)pyrido[4,3-d]pyrimidin-4-yl)-1-((E)-3-(3-methyl-1,2,4-oxadiazol-5-yl)acryloyl)piperazin-2-yl)acetonitrile] | 10 to 100 nM | 10 to 100 nM | 3.54 | 3.98 µg/mL (≈ 5.48 µM)
4 | Cc1nccc(/C=C/C(=O)N2CCN(c3nc(OC[C@@]45CCCN4C[C@H](F)C5)nc4c(F)c(-c5cccc6ccc(F)c(Cl)c56)ncc34)C[C@@H]2CC#N)n1 [Compound 147] | < 10 nM | < 10 nM | 3.64 | 4.93 µg/mL (≈ 6.54 µM)
5 | N#CC[C@H]1CN(c2nc(OC[C@@]34CCCN3C[C@H](F)C4)nc3c(F)c(-c4cccc5ccc(F)c(F)c45)ncc23)CCN1C(=O)/C=C/CN1C[C@H]2COC[C@H]2C1 [Compound 223] | < 10 nM | < 10 nM | 3 | 118 µg/mL (≈ 153 µM)
6 | Cc1nsc(/C=C/C(=O)N2CCN(c3nc(OCC45CCCN4CCC5)nc4c(F)c(-c5cccc6ccc(F)c(Cl)c56)ncc34)C[C@@H]2CC#N)n1 [Compound 156] | < 10 nM | < 10 nM | 2.78 | 84.5 µg/mL (≈ 114 µM)
7 | N#CC[C@H]1CN(c2nc(OC[C@@]34CCCN3C[C@H](F)C4)nc3c(F)c(-c4cccc5cccc(Cl)c45)ncc23)CCN1C(=O)/C=C/CN1CC2CC(C1)O2 [Example 86, 2-((2S)-1-((E)-4-(6-oxa-3-azabicyclo[3.1.1]heptan-3-yl)but-2-enoyl)-4-(7-(8-chloronaphthalen-1-yl)-8-fluoro-2-(((2R,7aS)-2-fluorohexahydro-1H-pyrrolizin-7a-yl)methoxy)pyrido[4,3-d]pyrimidin-4-yl)piperazin-2-yl)acetonitrile] | < 10 nM | < 10 nM | 2.9 | 96.6 µg/mL (≈ 128 µM)

Other lines, results leading:

Row | IC50 [1] | IC50 [2] | logD [3] | solubility kinetic at 2 h [4] | Structure (SMILES)
8 | 10 to 100 nM | 10 to 100 nM | 3.09 | 2.33 µg/mL (≈ 3.16 µM) | CC(C)(C)c1noc(/C=C/C(=O)N2CCN(c3nc(OCC45CCCN4CCC5)nc4c3CCN(c3cccc5cccc(Cl)c35)C4)C[C@@H]2CC#N)n1 [Compound 30]
9 | < 10 nM | < 10 nM | 3.38 | 90.2 µg/mL (≈ 128 µM) | Cc1nccc(/C=C/C(=O)N2CCN(c3nc(OCC45CCCN4CCC5)nc4c3CCN(c3cccc5cccc(Cl)c35)C4)C[C@@H]2CC#N)n1 [Compound 202]
10 | < 10 nM | < 10 nM | 3.33 | 24.4 µg/mL (≈ 33.5 µM) | N#CC[C@H]1CN(c2nc(OCC34CCCN3CCC4)nc3c2CCN(c2cccc4cccc(Cl)c24)C3)CCN1C(=O)/C=C/c1nc(C(F)F)no1 [Compound 19]
